Measurements as given in the supplement of paper PMC11451515.

Tested on: NOMO1
Experiment: cell viability relative to DMSO control; higher = less cytotoxic
Conditions: 48 h
Method in brief: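 Viability is a per-plate percentage relative to DMSO wells, with cell-free wells as background. CellTiter-Glo One luminescence was read after 48 h at 37°C on 1536-well plates (5 μl) of NOMO1 or SEM (500 cells/well) or P12-Ichikawa (1000 cells/well) leukemia cells. The cells had been adapted for at least four passages in each medium and pin-dosed with library compounds in DMSO from 47 μM to 0.79 nM in 11 threefold steps.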

[1] = HPLM + 10% dialyzed FBS, 0.000781 µM
[2] = HPLM + 10% dialyzed FBS, 0.00234 µM
[3] = HPLM + 10% dialyzed FBS, 0.00702 µM
[4] = HPLM + 10% dialyzed FBS, 0.0211 µM
[5] = HPLM + 10% dialyzed FBS, 0.0632 µM
[6] = HPLM + 10% dialyzed FBS, 0.19 µM
[7] = HPLM + 10% dialyzed FBS, 0.569 µM
[8] = HPLM + 10% dialyzed FBS, 1.71 µM
[9] = HPLM + 10% dialyzed FBS, 5.12 µM
[10] = HPLM + 10% dialyzed FBS, 15.4 µM
[11] = HPLM + 10% dialyzed FBS, 46.1 µM
[12] = RPMI 5 mM glucose + 10% FBS, 0.000781 µM
[13] = RPMI 5 mM glucose + 10% FBS, 0.00234 µM
[14] = RPMI 5 mM glucose + 10% FBS, 0.00702 µM
[15] = RPMI 5 mM glucose + 10% FBS, 0.0211 µM
[16] = RPMI 5 mM glucose + 10% FBS, 0.0632 µM
[17] = RPMI 5 mM glucose + 10% FBS, 0.19 µM
[18] = RPMI 5 mM glucose + 10% FBS, 0.569 µM
[19] = RPMI 5 mM glucose + 10% FBS, 1.71 µM
[20] = RPMI 5 mM glucose + 10% FBS, 5.12 µM
[21] = RPMI 5 mM glucose + 10% FBS, 15.4 µM
[22] = RPMI 5 mM glucose + 10% FBS, 46.1 µM
[23] = RPMI 5 mM glucose + 10% dialyzed FBS, 0.000781 µM
[24] = RPMI 5 mM glucose + 10% dialyzed FBS, 0.00234 µM
[25] = RPMI 5 mM glucose + 10% dialyzed FBS, 0.00702 µM
[26] = RPMI 5 mM glucose + 10% dialyzed FBS, 0.0211 µM
[27] = RPMI 5 mM glucose + 10% dialyzed FBS, 0.0632 µM
[28] = RPMI 5 mM glucose + 10% dialyzed FBS, 0.19 µM
[29] = RPMI 5 mM glucose + 10% dialyzed FBS, 0.569 µM
[30] = RPMI 5 mM glucose + 10% dialyzed FBS, 1.71 µM
[31] = RPMI 5 mM glucose + 10% dialyzed FBS, 5.12 µM
[32] = RPMI 5 mM glucose + 10% dialyzed FBS, 15.4 µM
[33] = RPMI 5 mM glucose + 10% dialyzed FBS, 46.1 µM

Compound	cell viability [1]	cell viability [2]	cell viability [3]	cell viability [4]	cell viability [5]	cell viability [6]	cell viability [7]	cell viability [8]	cell viability [9]	cell viability [10]	cell viability [11]	cell viability [12]	cell viability [13]	cell viability [14]	cell viability [15]	cell viability [16]	cell viability [17]	cell viability [18]	cell viability [19]	cell viability [20]	cell viability [21]	cell viability [22]	cell viability [23]	cell viability [24]	cell viability [25]	cell viability [26]	cell viability [27]	cell viability [28]	cell viability [29]	cell viability [30]	cell viability [31]	cell viability [32]	cell viability [33]
CC(C)C[C@H](NC(=O)[C@H](Cc1ccccc1)NC(=O)c1cnccn1)B(O)O	99.7%	106%	108%	119%	21.6%	3.62%	4.25%	2.64%	2.22%	1.08%	0.274%	83.7%	91.4%	99%	96.6%	21.6%	6.12%	2.91%	1.66%	1.61%	1.02%	-0.312%	94.5%	101%	98.4%	116%	17%	5%	3.79%	3%	1.75%	1.72%	-0.0281%
CC(C)(C)NC(=O)[C@H]1CC[C@H]2[C@@H]3CC[C@H]4NC(=O)\C=C/[C@]4(C)[C@H]3CC[C@]12C	76.6%	94.6%	109%	108%	107%	99.8%	112%	84.3%	27.2%	26.8%	27.4%	101%	95.7%	102%	96.5%	96.6%	111%	109%	71%	20.9%	18.7%	14.5%	95.8%	105%	100%	107%	107%	108%	115%	102%	26.3%	25.2%	18.8%
O=C(CCc1ccc(O)cc1)c1c(O)cc(O)cc1O[C@@H]1O[C@H](CO)[C@@H](O)[C@H](O)[C@H]1O												82.5%	80.8%	81.7%	77%	92.1%	86.1%	82.4%	78.1%	85.4%	75.1%	84.8%	104%	96%	115%	105%	115%	106%	50.2%	73.1%	85.1%	53.1%	81.2%
Cc1c(C(=O)Nc2cccc(C(F)(F)F)c2)cc(-c2ccccc2)n1CCCN1CCOCC1	104%	99.5%	112%	109%	97.2%	113%	129%	116%	105%	95.9%	82.5%	107%	105%	111%	100%	102%	101%	96.5%	92.4%	91.7%	96.4%	95.2%	115%	107%	111%	109%	108%	117%	111%	111%	109%	91.4%	73.3%
CNCC(O)C(O)C(O)C(O)CO.O=C(O)c1ccc(-c2cc3cccnc3c(-c3ccc4nonc4c3)n2)cc1	105%	110%	115%	111%	121%	126%	112%	122%	112%	110%	76.7%	118%	119%	119%	118%	115%	112%	125%	106%	117%	119%	102%	99%	105%	124%	120%	114%	111%	127%	111%	111%	118%	74.4%
CC(=O)[C@H]1CC[C@H]2[C@@H]3CCC4=CC(=O)CC[C@]4(C)[C@H]3CC[C@]12C	110%	122%	140%	136%	127%	120%	123%	133%	139%	115%	147%	116%	109%	122%	120%	116%	111%	114%	123%	128%	120%	133%	114%	121%	134%	134%	127%	135%	136%	141%	158%	140%	150%
CN(C)CCCNC(=O)c1ccc(-c2cc(O)c3ncccc3c2)cc1	113%	110%	109%	107%	105%	85.9%	117%	98.8%	114%	86.7%	60.1%	89.1%	89.5%	96.2%	99.5%	103%	84%	86.1%	87.7%	97.2%	85.9%	82.4%	96.3%	94.6%	112%	98.1%	102%	112%	94.2%	101%	106%	91.1%	62.8%
CN[C@@H]1C[C@H]2O[C@@](C)([C@@H]1OC)n1c3ccccc3c3c4c(c5c6ccccc6n2c5c31)C(=O)N[C@H]4O	81.2%	101%	93.1%	78.2%	96.8%	56.4%	48.8%	35.4%	22.7%	18%	3.31%	76.2%	87.6%	81.4%	82.7%	84.6%	69.4%	64.7%	19.6%	14.8%	12.7%	3.97%	79.9%	84.5%	85.9%	90.5%	95.9%	85.5%	65.5%	31.6%	16.9%	14.7%	3.79%
